Experimental findings from patent US7803825B2, “Aminoalkylazole derivatives as histamine-3 antagonists” (Wyeth LLC, priority 2007, dated 2010) are described below.

Counter-ions that a name gives are not always drawn. A value given as a limit tells only on which side of the number the result lay.

T1 sequence (Q9Y5N1 whole entry): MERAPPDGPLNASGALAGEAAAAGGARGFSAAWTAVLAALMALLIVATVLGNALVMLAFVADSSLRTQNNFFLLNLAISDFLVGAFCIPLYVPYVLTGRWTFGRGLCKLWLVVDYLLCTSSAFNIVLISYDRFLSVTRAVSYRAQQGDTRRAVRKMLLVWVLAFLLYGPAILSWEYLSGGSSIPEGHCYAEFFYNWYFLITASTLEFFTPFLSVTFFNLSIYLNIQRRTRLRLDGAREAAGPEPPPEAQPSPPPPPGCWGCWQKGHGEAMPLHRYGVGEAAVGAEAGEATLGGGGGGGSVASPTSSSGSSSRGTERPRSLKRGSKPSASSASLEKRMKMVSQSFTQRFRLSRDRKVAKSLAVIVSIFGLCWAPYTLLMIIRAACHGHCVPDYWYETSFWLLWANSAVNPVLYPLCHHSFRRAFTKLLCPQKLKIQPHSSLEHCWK

The test concerns the target T1, histamine-3 (H3) receptor (Homo sapiens, UniProt Q9Y5N1).
T1 construct: expressed in transfected cells; host or cells: HEK293T
Kind of test: Methyl Histamine Binding in Human Histamine-3 Receptor Cell Line. The note with it: membranes of stably transfected HEK293T cells, radioligand 1 nM, Ki from IC50 by Cheng-Prusoff.
With `c1ccc2c(c1)nc(-c1ccc(-c3nc(CN4CCCC4)co3)cc1)n2CC1CCC1` [Example 58, 1-(cyclobutylmethyl)-2-{4-[4-(pyrrolidin-1-ylmethyl)-1,3-oxazol-2-yl]phenyl}-1H-benzimidazole], the Ki lay within 10.1 to 25 nM. Next, `CC1CCCN(Cc2cnc(-c3ccc(Cn4cnc5ccccc54)cc3)o2)C1` (stereo not shown) [Example 109, 1-(4-{5-[(3-methylpiperidin-1-yl)methyl]-1,3-oxazol-2-yl}benzyl)-1H-benzimidazole]: more than 100 nM. On to `Cn1c(CN2CCCC2)cnc1-c1ccc(Cn2cnc3ccccc32)cc1` [Example 139, 1-[4-(1-Methyl-5-pyrrolidin-1-ylmethyl-1H-imidazol-2-yl)-benzyl]-1H-benzoimidazole fumarate salt], for which the Ki fell in the range of 50.1 to 100 nM. Next, `CN1CCN(Cc2coc(-c3ccc(Cn4cnc5ccccc54)cc3)n2)CC1` [Example 11]: more than 100 nM. In the case of `F[C@H]1CCN(Cc2coc(-c3ccc(Cn4cnc5ccccc54)cc3)n2)C1` [Example 22, 1-[4-(4-{[(3S)-3-fluoropyrrolidin-1-yl]methyl}-1,3-oxazol-2-yl)benzyl]-1H-benzimidazole] it was 10.1 to 25 nM; in that of `CCN(C)Cc1coc(-c2ccc(-c3nc4ccccc4n3C)cc2)n1` [Example 53, N-methyl-N-({2-[4-(1-methyl-1H-benzimidazol-2-yl)phenyl]-1,3-oxazol-4-yl}methyl)ethanamine], not above 10 nM.

`C[C@H]1CCCN1Cc1coc(-c2ccc(-c3nc4ccccc4n3CC3CCC3)cc2)n1` [Example 59, 1-(cyclobutylmethyl)-2-[4-(4-{[(2S)-2-methylpyrrolidin-1-yl]methyl}-1,3-oxazol-2-yl)phenyl]-1H-benzimidazole] had an inhibition constant Ki not above 10 nM. Compound `C[C@@H]1CCCN1Cc1coc(-c2ccc(Cn3cnc4ccccc43)cc2)n1` [Example 19, 1-[4-(4-{[(2R)-2-methylpyrrolidin-1-yl]methyl}-1,3-oxazol-2-yl)benzyl]-1H-benzimidazole] registered an inhibition constant Ki not above 10 nM. Next, `c1ccc2c(c1)cnn2Cc1ccc(-c2nc(CN3CCCC3)co2)cc1` [Example 88, 1-{4-[4-(pyrrolidin-1-ylmethyl)-1,3-oxazol-2-yl]benzyl}-1H-indazole]: 50.1 to 100 nM; `c1ccc(-c2nc3ccccc3n2Cc2ccc(-c3nc(CN4CCCC4)co3)cc2)cc1` [Example 115, 2-phenyl-1-{4-[4-(pyrrolidin-1-ylmethyl)-1,3-oxazol-2-yl]benzyl}-1H-benzimidazole]: not above 10 nM. Next, `C[C@H]1CCCN1Cc1coc(-c2ccc(Cn3cnc4ccccc43)cc2)n1` [Example 20, 1-[4-(4-{[(2S)-2-methylpyrrolidin-1-yl]methyl}-1,3-oxazol-2-yl)benzyl]-1H-benzimidazole]: not above 10 nM; `CC1CCN(Cc2coc(-c3ccc(-n4cnc5ccccc54)cc3)n2)CC1` [Example 47, 1-(4-{4-[(4-methylpiperidin-1-yl)methyl]-1,3-oxazol-2-yl}phenyl)-1H-benzimidazole]: not above 10 nM; `c1ccc2c(c1)ncn2Cc1ccc(-c2nc(CN3CCCCC3)co2)cc1` [Example 7, 1-{4-[4-(piperidin-1-ylmethyl)-1,3-oxazol-2-yl]benzyl}-1H-benzimidazole]: not above 10 nM.

As usually defined, the Ki is a measure of affinity in units of concentration, obtained from inhibition or displacement.
